Entries after “also recorded” stand apart in the source; their conditions may differ.
What was measured:
Type in all cases: cell-based, mice
[1] = system: MRL/lpr Mφs; test: Lysosome acidification after IgG-IC stimulation, ratiometric flow cytometry (relative phagosomal pH); conditions: MRL/lpr Mφs/BMMFs stimulated with IgG-ICs; inhibitor added 2 hours prior and left on
Protocol: (§1) FIGS. 6A-6B. […] (6A). BMMφs from B6 and MRL/lpr mice were stimulated with IgG-ICs±TGX-221 (p110β), IC87114 (p110δ), or Torin1 (mTorC1/C2), and ratiometric flow cytometry was used to quantify the relative phagosomal pH. (6B). Cells were pre-treated with drugs (for 2 hr) and given IgG-ICs. IgG-ICs were removed after 2 hr. Cells remained on drug for the duration of the experiment. At 72 hrs, levels of surface bound IgG-ICs were analyzed by flow cytometry. All values are normalized to B6 untreated. n=3-7.
FIGS. 9A-9C. […] (9A). BMMφs (left panel) or splenic CD11b+ myeloid cells from B6 and MRL/lpr (right panel) were stimulated with IgG-ICs±SM-PEG (1, 2) (5 μg/mL) or control SM-PEG […] (5 μg/mL), and ratiometric flow cytometry was used to quantify the relative phagosomal pH. For internal control, cells were treated with concanamycin A (CMA) 2 hrs prior to IgG-ICs treatment (T0+CMA) to inhibit lysosomal pH change. 2-7 mice, >2 experiments. (9B). BMMφs (left panel) or splenic CD11b+ myeloid cells (right panel) were stimulated with SM-PEG (1, 2) or control SM-PEG (2, 1), or left unstimulated for 30 min or 60 min. At each time points, fixed cells were analyzed for surface bound nucleosomes. 2 mice, 2 experiments. (9C). BMMφs were stimulated with IgG-ICs±SM-PEG(1, 2) (5 μg/mL) for 1 hr, then pAKT (Ser/Thr) and pSHIP1 levels were assessed by flow cytometry. Phospho-proteins were normalized to isotype controls and the levels of total protein. 4 mice, 4 experiments.
The acidotropic dye LysoSensor™ Yellow/Blue can be used to quantify the pH or lysosomes using ratiometric imaging. […] For this adaptation, we loaded cells with an acidotropic dye and concurrently analyzed cells by microscopy (with pH standards) and flow cytometry. […]
Cells were incubated (37° C., 5% CO2) for 2 hours prior to the addition of 40 μL of IgG-ICs in R10 media (as above). […] At each time points, LysoSensor™ (2 mg/mL) was added and incubated for 15 min, then, analyzed by flow cytometry. […] Relative pH was quantified by ratioing the MFIs from the emission channels (450/20 nm, 585/42 nm) (normalized to concanamycin A control). […]

[2] = system: MRL/lpr Mφs; test: Recycling of IgG-IC flow cytometry (surface bound IgG-ICs); conditions: pre-treated with drugs 2 hr, surface IgG-ICs at 72 hrs
Protocol: as §1
Cells (0.25×10^6) were rested in R10 media for 1 hr at 37° C. prior to the addition of any reagents. IgG-ICs were added, incubated for given duration, and removed at each time points. […]
BMMφs were incubated (37° C., 5% CO2) with 40 μL Alexa Fluor® 488-labeled IgG-ICs in R10 media (as above). To quantify surface bound ICs at 0 hours, phagocytic uptake was impaired by culturing with IgG-ICs on ice for 2 hours. […] One sample was incubated with an anti-Alexa Fluor® 488 antibody (quenches Alexa Fluor® 488 fluorescence), while the other sample was left in FACS media for 30 min on ice. […] Surface bound IgG-ICs were calculated by subtracting the MFI of the quenched sample (intracellular IgG-ICs) from the MFI of the unquenched sample (total IgG-ICs). […]

[3] = system: B6 MFs; test: Recycling of IgG-ICs in B6 MFs treated with concanamycin A
Protocol: BMMφs were incubated (37° C., 5% CO2) with 40 μL Alexa Fluor® 488-labeled IgG-ICs in R10 media (as above). To quantify surface bound ICs at 0 hours, phagocytic uptake was impaired by culturing with IgG-ICs on ice for 2 hours. This was sufficient to allow the ICs to bind to the surface of the cell but not be phagocytosed. For all other time points, cells were incubated (37° C., 5% CO2) for 2 hours, then media was replaced to remove all unbound ICs. At indicated time points, cells were blocked in 2.4G2 for 30 min on ice in FACS media, washed, and split into 2 samples. One sample was incubated with an anti-Alexa Fluor® 488 antibody (quenches Alexa Fluor® 488 fluorescence), while the other sample was left in FACS media for 30 min on ice. Both samples were washed and fixed with 2% paraformaldehyde and incubated at 4° C. for 15 min. Surface bound IgG-ICs were calculated by subtracting the MFI of the quenched sample (intracellular IgG-ICs) from the MFI of the unquenched sample (total IgG-ICs). Values were normalized to B6 0 hr.

[4] = system: MRL/lpr BMMφ; test: mTOR localization by confocal imaging; conditions: MRL/lpr BMMφs; Torin1 250 ng/mL for 2 hrs
Protocol: FIGS. 5A-5B. Localization of mTOR is defective in MRL/lpr BMMφ. (5A-5B). Unstimulated BMMφs cultured±Torin1 (250 ng/mL) for 2 hrs were examined for mTOR localization with CD11b by confocal imaging. Colocalization of mTOR to membrane (CD11b) is quantitated by mander's coefficient (5A). Total cellular mTOR levels were quantitated using ImageJ software (5B); 3 exp, 2-3 mice, 10-29 cells.
BMMφs were cultured with IgG-ICs in R10 media at 37° C. For measuring lipid rafts fluorescently labeled CTx was added to the culture 30 min prior to fixation. For the nuclear stain, hoechst was added 15 min prior to fixation. Mφs were fixed with 2% paraformaldehyde, then incubated at 4° C. for 15 min. Cells were blocked in 2.4G2 for 30 min at 4° C. in FACs media (PBS with 2% FBS, 0.02% NaN3), washed, and stained with primary and corresponding secondary antibodies in permeabilization buffer (PBS with 0.05% Saponin and 0.5% BSA) for 30 min at 4° C. Mφs were imaged in FACs media or resuspended in FluorSave™ and imaged. […] Data were analyzed using ImageJ. Colocalization was measured by calculating the Mander's coefficient (colocalized pixels/total fluorescent pixels) in all the cells imaged.

SMILES	lysosome acidification [1]	recycling of IgG-ICs (surface bound IgG-ICs) [2]	recycling of IgG-ICs [3]	mTOR localization [4]
Cc1ccccc1-n1c(Cn2cnc3c(N)ncnc32)nc2cccc(C)c2c1=O [IC87114]	restored lysosome acidification to levels comparable to B6; also recorded: restored lysosomal acidification	prevented the recycling of IgG-ICs		
Cc1cc(C(C)Nc2ccccc2)c2nc(N3CCOCC3)cc(=O)n2c1 (stereo not shown) [TGX-221]	restored lysosome acidification to levels comparable to B6; also recorded: restored lysosomal acidification	prevented the recycling of IgG-ICs		
C/C=C/[C@H]1O[C@@](O)([C@@H](C)[C@H](O)[C@H](C)[C@H]2OC(=O)/C(OC)=C/C(C)=C/[C@@H](C)[C@@H](O)[C@@H](CC)[C@@H](O)[C@H](C)C/C(C)=C/C=C/[C@@H]2OC)C[C@@H](O[C@H]2C[C@@H](O)[C@H](OC(N)=O)[C@@H](C)O2)[C@@H]1C [concanamycin A]			promotes the recycling of IgG-ICs	
CCC(=O)N1CCN(c2ccc(-n3c(=O)ccc4cnc5ccc(-c6cnc7ccccc7c6)cc5c43)cc2C(F)(F)F)CC1 [Torin1]	restored lysosome acidification to levels comparable to B6; also recorded: restored lysosomal acidification			restored mTOR to a cytosolic location

From patent US20250109216A1, “COMPOSITIONS AND METHODS FOR CROSSLINKING FC RECEPTORS” (The University of North Carolina at Chapel Hill, priority 2016, published 2025)
